# Measurements published in patent EP4702986A1, “POLYPEPTIDE AND USE THEREOF” (Biocells (Beijing) Biotech Co., Ltd., priority 2023, dated 2024).
# Entries after “also recorded” stand apart in the source; their conditions may differ. Numbered stars: 1 amine (or outer) side, 2 acyl side, 3 side chain; on linkers, the order of the positions; unused ones are H or OH. Side chains are listed from the residue outwards. Peptide text beside a SMILES is read from it. * marks the point of attachment. C18 diacid = O=C(O)CCCCCCCCCCCCCCCCC(=O)*; γGlu = O=C(O)[C@H](CCC(=O)[*:2])N[*:1]; Fumaroyl = O=C(O)/C=C/C(=O)*; Lauroyl = CCCCCCCCCCCC(=O)*; AEEA = NCCOCCOCC(=O)O
# Tests used:
# male SD rats = test: in vivo; settings: for Observations of Animal Status: one animal per row, observed 24 hours
# Description: (§1) In an experiment about acute toxicity of intravenous administration, male SD rats weighing 200-230 g were dosed in a range between 480 µg/Kg and 30 µg/Kg via tail vein injection in a descending order of dosage. […] Toxic response and mortality of the rats were preliminarily observed, and time of death and doses without mortality of the rats were recorded. The level of acute toxicity of the polypeptides was preliminarily determined based on the doses without mortality.
# in vivo = settings: male, SD, rat, in vivo, iv
# Description: as §1
# human ETA receptor = target: T1, human ETA receptor (Homo sapiens, UniProt P25101); test: Selectivity of polypeptides on human ETA receptor (IP-One Gq kit, % of positive control ET1); assay type: cell-based; settings: read-out: hETAR agonist activity, percentage of activity relative to ET1
# T1 construct: expressed in transfected cells; host or cells: 293T-17 cells, transient transfection
# T1 sequence (P25101 21-427): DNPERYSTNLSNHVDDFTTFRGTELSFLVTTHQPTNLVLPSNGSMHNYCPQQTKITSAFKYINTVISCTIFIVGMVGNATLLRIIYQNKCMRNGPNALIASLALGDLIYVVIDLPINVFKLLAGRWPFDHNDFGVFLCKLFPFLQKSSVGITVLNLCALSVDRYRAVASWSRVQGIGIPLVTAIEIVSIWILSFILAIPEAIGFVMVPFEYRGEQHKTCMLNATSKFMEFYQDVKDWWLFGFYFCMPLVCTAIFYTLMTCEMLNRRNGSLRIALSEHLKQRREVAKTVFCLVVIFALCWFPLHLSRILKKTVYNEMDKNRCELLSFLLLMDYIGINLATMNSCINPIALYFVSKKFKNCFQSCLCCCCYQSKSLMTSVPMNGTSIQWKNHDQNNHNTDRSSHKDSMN
# Procedure, shortened: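 293T-17 cells transiently transfected with human ETA receptor (48 h), 30,000 cells/well exposed to polypeptides for 1 h at 37°C; IP1 accumulation by HTRF (665/620 nm ratio). Activity given as % of ET1 at the same concentration after PBS-control subtraction.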
# [1] = Determination of half-lives of polypeptides (plasma, LC-MS); settings: for half-life: C57 BL/6, mouse, plasma, iv
# [2] = intravenous (tail vein) 120 µg/Kg
# [3] = intravenous (tail vein) 240 µg/Kg
# [4] = intravenous (tail vein) 480 µg/Kg
# [5] = intravenous (tail vein) 360 µg/Kg
SMILES,Observations of Animal Status (male SD rats; intravenous (tail vein) 30 µg/Kg),Observations of Animal Status (male SD rats; intravenous (tail vein) 60 µg/Kg),Observations of Animal Status (male SD rats; [2]),Observations of Animal Status (male SD rats; [3]),MTD at 24 h (in vivo),activation at 10 µM (human ETA receptor),activation at 100 µM (human ETA receptor),half-life [1],Observations of Animal Status (male SD rats; [4]),"acute toxicity of intravenous administration (comparison among polypeptides) (male SD rats; male SD rats, tail vein injection)","AUClast 0-30 min ([1]; C57 BL/6 mice, i.v., dosage per compound 0.48, 0.96 or 1 mpk)",Observations of Animal Status (male SD rats; [5])
CCCCCCCCCCCC(=O)N[C@@H](CCC(=O)O)C(=O)NCCOCCOCC(=O)NCCCC[C@H](NC(=O)[C@H](Cc1c[nH]cn1)NC(=O)[C@H](C)NC(=O)[C@H](Cc1ccccc1)NC(=O)[C@H](Cc1ccc(O)cc1)NC(=O)[C@@H](NC(=O)[C@H](C)NC(=O)[C@H](CCC(=O)O)NC(=O)[C@H](CCC(=O)O)NC(=O)[C@H](CC(=O)O)NC(=O)/C=C/C(=O)O)C(C)C)C(=O)N[C@@H](CC(=O)O)C(=O)N[C@H](C(=O)N[C@H](C(=O)N[C@@H](Cc1c[nH]c2ccccc12)C(=O)O)[C@@H](C)CC)C(C)C [BX-238] (Fumaroyl-DEEAVYFAHK([AEEA-Glu-Lauroyl])DVIW-OH),"Breathing speeded up at 53 minutes, showed no willingness to move at 1.2 hours; found dead the next morning (estimated to have died during the night); also recorded: Breathing speeded up at 50 minutes, showed no willingness to move at 1.2 hours; found dead the next morning (estimated to have died during the night)",Developed rapid breathing at 40-45 minutes; died at 1 hour,"Developed rapid breathing at 5 minutes, the eyes turned pale and purple at 14 minutes; died at 16 minutes","Developed abdominal breathing at 5-6 minutes, developed rapid breathing and collapsed at 9 minutes; died at 11 minutes",0.03 mg/kg,-4.74%,-5.07%,53 min,–,–,–,–
CC[C@H](C)[C@H](NC(=O)[C@H](CC(=O)O)NC(=O)[C@H](CC(C)C)NC(=O)[C@H](Cc1c[nH]cn1)NC(=O)[C@H](C)NC(=O)[C@H](Cc1ccccc1)NC(=O)[C@H](Cc1ccc(O)cc1)NC(=O)[C@@H](NC(=O)[C@H](C)NC(=O)[C@H](CCC(=O)O)NC(=O)[C@H](CCC(=O)O)NC(=O)[C@H](CCCCNC(=O)COCCOCCNC(=O)COCCOCCNC(=O)CC[C@H](NC(=O)CCCCCCCCCCCCCCCCC(=O)O)C(=O)O)NC(=O)/C=C/C(=O)O)C(C)C)C(=O)N[C@H](C(=O)N[C@@H](Cc1c[nH]c2ccccc12)C(=O)O)[C@@H](C)CC [BX-253] (Fumaroyl-K([AEEA-AEEA-γGlu-C18 diacid])EEAVYFAHLDIIW-OH),–,–,–,No abnormalities,0.48 mg/kg,-12.9%,-9.03%,63 min,No abnormalities,lowest acute toxicity,3989 ng·h/mL,–
CC[C@H](C)[C@H](NC(=O)[C@H](CC(=O)O)NC(=O)[C@H](CC(C)C)NC(=O)[C@H](Cc1c[nH]cn1)NC(=O)[C@H](C)NC(=O)[C@H](Cc1ccccc1)NC(=O)[C@H](Cc1ccc(O)cc1)NC(=O)[C@@H](NC(=O)[C@H](C)NC(=O)[C@H](CCC(=O)O)NC(=O)[C@H](CCCCNC(=O)COCCOCCNC(=O)COCCOCCNC(=O)CC[C@H](NC(=O)CCCCCCCCCCCCCCCCC(=O)O)C(=O)O)NC(=O)[C@H](CC(=O)O)NC(=O)/C=C/C(=O)O)C(C)C)C(=O)N[C@H](C(=O)N[C@@H](Cc1c[nH]c2ccccc12)C(=O)O)[C@@H](C)CC [BX-254] (Fumaroyl-DK([AEEA-AEEA-γGlu-C18 diacid])EAVYFAHLDIIW-OH),–,–,–,"No obvious abnormalities; also recorded: Developed rapid breathing, the limbs turned purple, developed breathing depression, and limbs moved like swimming at 15 minutes after administration; then died at 20 minutes after administration; also recorded: Developed rapid breathing, the limbs turned purple, and had weak limbs at 14 minutes after administration; died of breathing depression at 21 minutes after administration",0.12 mg/kg,–,–,–,The body turned purple at 22 minutes after administration; died at 25 minutes after administration,–,–,The body turned purple at 16 minutes after administration; died at 26 minutes after administration
CC[C@H](C)[C@H](NC(=O)[C@H](CC(=O)O)NC(=O)[C@H](CC(C)C)NC(=O)[C@H](Cc1c[nH]cn1)NC(=O)[C@H](C)NC(=O)[C@H](Cc1ccccc1)NC(=O)[C@H](Cc1ccc(O)cc1)NC(=O)[C@@H](NC(=O)[C@H](C)NC(=O)[C@H](CCC(=O)O)NC(=O)[C@H](CCC(=O)O)NC(=O)[C@H](CC(=O)O)NC(=O)[C@H](CC(=O)O)NC(=O)COCCOCCNC(=O)COCCOCCNC(=O)CC[C@H](NC(=O)CCCCCCCCCCCCCCCCC(=O)O)C(=O)O)C(C)C)C(=O)N[C@H](C(=O)N[C@@H](Cc1c[nH]c2ccccc12)C(=O)O)[C@@H](C)CC [BX-255] ({C18 diacid-γGlu-AEEA-AEEA}-DDEEAVYFAHLDIIW-OH),–,–,"No obvious adverse reactions in the first 1 hour; breathing became slightly faster at nearly 2 hours; was in good condition and recovered when observed the next day; also recorded: Showed no willingness to move at 9 minutes; recovered at 1 hour and 10 minutes; also recorded: Lay still and showed no willingness to move at 12 minutes; became active at 17 minutes; signs of pain were observed in the animal through pupil observation; no pain at 28 minutes; also recorded: Developed difficulty in breathing at 17 minutes, recovered to normal in about 10 seconds; signs of pain were observed in the animal through pupil observation; no pain at 28 minutes",No obvious reaction in the first 27 minutes after administration; breathing speeded up at 27 minutes; died at 49 minutes after administration; also recorded: No obvious reaction in the first 24 minutes after administration; breathing speeded up at 27 minutes; died at 43 minutes after administration,0.12 mg/kg,–,–,–,The body turned purple at 23 minutes after administration; died at 29 minutes after administration,–,–,The body turned purple at 12 minutes after administration; died at 22 minutes after administration
